Experimental data: patent US11814652B2, “Pluripotent stem cell differentiation-promoting agent” (Oriental Yeast Co., Ltd., priority 2018, dated 2023)

How the values were obtained:
iPS cells 201B7 strain [1] = experiment: Flow cytometry of Brachyury/CD56 mesodermal markers, differentiation-induction in medium with β-NMN (Example 3); format: cell-based, human
Method: The effects of β-NMN on the mesodermal differentiation-induction of iPS cells were examined. The 201B7 strain was used as the iPS cells. The iPS cells were seeded in a 24-well plate coated with Matrigel (manufactured by Corning Incorporated) according to the manufacturer's protocol at 1×10^5 cells/well. The cells in the 24-well plate were cultured in a culture medium for iPS cells adjusted to have a final concentration of Rock inhibitor of 10 μM for 1 day. From the 1st day after seeding, the culture medium was replaced with a culture medium prepared by adjusting a mesoderm differentiation-inducing culture medium of “STEMdiff Trilineage Differentiation kit” (manufactured by STEMCELL Technologies) to have a final concentration of β-NMN of 0, 0.1, 0.25, or 1 mM for 1 day. […] Then, the cells were stained with a fluorescence-labeled anti-Brachyury antibody (manufactured by Merck, clone 3E4.2) and a fluorescence-labeled anti-CD56 antibody (manufactured by Biolegend, clone HCD56). After washing the stained cells, a flow cytometer “FACS caliber” (manufactured by Becton, Dickinson and Company) was used to analyze the fluorescence intensity of the anti-Brachyury antibody and the fluorescence intensity of the anti-CD56 antibody in each sample. […]

iPS cells 201B7 strain [2] = experiment: Cell number during ectodermal differentiation-induction in medium with β-NMN (Example 2); format: cell-based, human; conditions: ectoderm differentiation-inducing medium containing β-NMN 0.1, 0.25 or 1 mM; 2nd, 4th, 7th day after seeding; versus medium not containing β-NMN
Method: The effect of β-NMN on the ectodermal differentiation-induction of the iPS cells was examined. The 201B7 strain was used as the iPS cells. The iPS cells were seeded in a 12-well plate coated with Matrigel (manufactured by Corning Incorporated) according to the manufacturer's protocol at 8×10^5 cells/well. The cells in the 12-well plate were cultured in a culture medium prepared by adjusting an ectodermal differentiation-inducing culture medium of “STEMdiff Trilineage Differentiation kit” (manufactured by STEMCELL Technologies) to have a final concentration of β-NMN of 0, 0.1, 0.25, or 1 mM, and a final concentration of Rock inhibitor of 10 μM for 1 day. From the 1st day after seeding, the medium was replaced every day with a culture medium obtained by removing the Rock inhibitor from the culture medium at the time of seeding. Cells of the 2nd, 4th or 7th day after seeding were sampled and the cell numbers were counted. The time-dependent change in cell number of each sample is shown in FIG. 2(A), and the cell numbers of the 7th day after seeding are shown in FIG. 2(B). As a result, the number of cells cultured in the ectoderm differentiation-inducing culture medium containing β-NMN was larger than the number of cells cultured in the medium not containing β-NMN.

[3] = test system: Human adipose tissue-derived mesenchymal stem cells; experiment: Oil red O staining after adipocyte differentiation-induction of mesenchymal stem cells grown with β-NMN (Example 9); format: cell-based; conditions: growth medium supplemented with 0.1 mM or 0.25 mM of β-NMN; 14th day of adipocyte differentiation-induction; compared with 0 mM
Excerpt: The effects of culturing in the presence of β-NMN before adipocyte differentiation-induction of mesenchymal stern cells were examined. In the same manner as in Example 8, Human adipose tissue-derived mesenchymal stem cells (manufactured by Lonza, Cat #PT5006) were used as the mesenchymal stem cells. As a growth culture medium, a culture medium prepared by appropriately adding β-MNM to “MSCGM Bullet Kit” (manufactured by Lonza, Cat #PT3001) was used as in Example 8. As an adipocyte differentiation-inducing culture medium, a culture medium prepared by adjusting a DMEM-High Glucose medium to have a final concentration of fetal bovine serum of 10% by volume, a final concentration of IBMX of 0.5 mM, a final concentration of dexamethasone of 1 μM, a final concentration of indomethacin of 200 μM, and a final concentration of penicillin-streptomycin of 0.1% was used. The culture of the mesenchymal stem cells before differentiation-induction was performed in the same manner as in Example 8. The differentiation induction was performed in the same manner as in Example 8 except that the adipocyte differentiation-inducing culture medium was used instead of the bone differentiation-inducing culture medium. On the 14th day from the initiation of the differentiation-induction, the staining test and the cell RNA recovery were performed. […]

NC(=O)c1ccc[n+]([C@@H]2O[C@H](COP(=O)([O-])O)[C@@H](O)[C@H]2O)c1 [β-NMN, β-nicotinamide mononucleotide]
ratio of Brachyury-positive CD56-positive cells (iPS cells 201B7 strain [1]; mesodermal differentiation-inducing medium with β-NMN 0.1, 0.25 or 1 mM, 5th or 7th day, versus absence of β-NMN): no clear difference
ratio of Brachyury-positive CD56-positive cells (iPS cells 201B7 strain [1]; β-NMN added at 1 mM, versus culturing without β-NMN): obviously lower
number of cells (iPS cells 201B7 strain [2]): larger
accumulation of lipid droplets (oil red O staining) [3]: more accumulation of lipid droplets
